Legend:
[1] = tested on: Leptosphaeria nodorum (LEPTNO); experiment: Leptosphaeria nodorum test (wheat), field trial DEU-S826; assay type: in vivo; details: sprayed twice, 18 DAB, BBCH 69, 75 g/ha (I), 75 g/ha (II), 150 g/ha (III), 75 + 75 + 150 g/ha combination; for Rating Scale: % Rating Type: Mean (Plant Part Rated: LEALOW): disease rating, untreated control 23.1
[2] = tested on: Septoria tritici (SEPTTR); experiment: Septoria tritici test (wheat), field trial FRA-AJ28; assay type: in vivo; details: sprayed twice, 47 DAB, BBCH 77, 75 g/ha (I), 75 g/ha (II), 150 g/ha (III), 75 + 75 + 150 g/ha combination; for Rating Scale: % Rating Type: Mean (Plant Part Rated: LEAF): disease rating, untreated control 95.0
[3] = tested on: Pyrenophora tritici-repentis (PYRNTR); experiment: Pyrenophora tritici-repentis test (wheat), field trial DEU-NWU3; assay type: in vivo; details: sprayed twice, 43 DAB, BBCH 83, 75 g/ha (I), 75 g/ha (II), 150 g/ha (III), 75 + 75 + 150 g/ha combination; for Rating Scale: % Rating Type: Mean (Plant Part Rated: FL-0-1): disease rating, untreated control 2.8
[4] = tested on: Drechslera tritici-repentis (DTR, also named Pyrenophora tritici-repentis); experiment: Curative potential against Drechslera tritici-repentis (tan spot) in winter wheat; assay type: in vivo; details: infected leaf area 21 days after inoculation; for Efficacy [% Abbott] 1 dai: application 1 day after inoculation; for Efficacy [% Abbott] 4 dai: application 4 days after inoculation
[5] = tested on: Alternaria alternata SDH-mutants; details: in vitro; Avenot et al., Crop Protection 29 (2010) 643-651; cited from earlier work
[6] = tested on: Septoria tritici (Mycosphaerella graminicola); experiment: Protective and curative potential against Septoria tritici in winter wheat, quantification of Septoria-DNA (SeptoCast); assay type: in vivo; details: 21 days after inoculation, dose rates Table 5
[7] = tested on: Septoria tritici (Mycosphaerella graminicola); experiment: Protective and curative potential against Septoria tritici in winter wheat, visual assessment of infested leaf area; assay type: in vivo; details: assessed 21 days after inoculation, dose rates Table 5: BIX 0.6, BIX+FLU 0.75, BIX+PTZ 1, BIX+FLU+PTZ 1 l/ha
[8] = solo compound at 97.5 g a.i./ha
[9] = curative, application 1 day after inoculation
[10] = curative, application 4 days after inoculation
[11] = curative, application 8 days after inoculation
[12] = curative, application 11 days after inoculation
[13] = preventive, application 1 day before inoculation
[14] = preventive, application 4 days before inoculation
[15] = preventive, application 8 days before inoculation
[16] = preventive, application 11 days before inoculation

For `OC(Cc1ccccc1Cl)(Cn1nc[nH]c1=S)C1(Cl)CC1` (stereo not shown) [(III) Prothioconazole, prothioconazole], the “Rating Scale: % Rating Type: Mean (Plant Part Rated: LEALOW)” value [1] was 6.4%, the “% ABBOTT” value [1] was 72.4% and the “Efficacy [%] % found” value [1] was 72.4%. The “Rating Scale: % Rating Type: Mean (Plant Part Rated: LEAF)” value [2] was 30.0%, the “% ABBOTT” value [2] was 68.4% and the “Efficacy [%] % found” value [2] was 68.4%. The “Rating Scale: % Rating Type: Mean (Plant Part Rated: FL-0-1)” value [3] was 1.8%, the “% ABBOTT” value [3] was 36.4% and the “Efficacy [%] % found” value [3] was 36.4%.

In the case of `Cn1cc(C(=O)Nc2ccccc2-c2cc(F)c(F)c(F)c2)c(C(F)F)n1` [Fluxapyroxad, fluxapyroxad], the “Efficacy [% Abbott] 1 dai” value [4, 8] is reported as 93 % Abbott, the “Efficacy [% Abbott] 4 dai” value [4, 8] is reported as 24 % Abbott and the “Efficacy [% Abbott] 1 dai” value ([4]; solo compound at 125 g a.i./ha) is reported as 94 % Abbott. For the same compound, the “Efficacy [% Abbott] 4 dai” value ([4]; solo compound at 125 g a.i./ha) was 32 % Abbott.

In the case of `CC(C)CC(C)c1sccc1NC(=O)c1cn(C)nc1C(F)(F)F` (stereo not shown) [penthiopyrad], the “effect on mycelial growth of boscalid-resistant isolates carrying SDH-mutations” value [5] is listed as “not affected”.

For `O=C(NCCc1ncc(C(F)(F)F)cc1Cl)c1ccccc1C(F)(F)F` [Fluopyram, N-{2-[3-chloro-5-(trifluoromethyl)-2-pyridyl]ethyl}-α,α,α-trifluoro-ortho-toluamide], the “Rating Scale: % Rating Type: Mean (Plant Part Rated: LEALOW)” value [1] was 10.9%, the “% ABBOTT” value [1] was 53.0% and the “Efficacy [%] % found” value [1] was 53.0%. The “Rating Scale: % Rating Type: Mean (Plant Part Rated: LEAF)” value [2] was 52.5%, the “% ABBOTT” value [2] was 44.7% and the “Efficacy [%] % found” value [2] was 44.7%. For the same compound, the “Rating Scale: % Rating Type: Mean (Plant Part Rated: FL-0-1)” value [3] was 2.3%, the “% ABBOTT” value [3] was 18.2% and the “Efficacy [%] % found” value [3] was 18.2%. The “effect on mycelial growth of boscalid-resistant isolates carrying SDH-mutations” value [5] was “strongly inhibited the mycelial growth”, the “Efficacy [% Abbott] 1 dai” value [4, 8] was 97 % Abbott and the “Efficacy [% Abbott] 4 dai” value [4, 8] was 49 % Abbott.

With `Cn1cc(C(=O)Nc2ccc(F)cc2-c2ccc(Cl)c(Cl)c2)c(C(F)F)n1` [Bixafen, bixafen] the “Rating Scale: % Rating Type: Mean (Plant Part Rated: LEALOW)” value [1] was 14.7%, the “% ABBOTT” value [1] was 36.5% and the “Efficacy [%] % found” value [1] was 36.5%. The “DNA Quantification [Septoria DNA], relative copynumbers, 1 dai” value [6, 9] was 135 n, the “DNA Quantification [Septoria DNA], relative copynumbers, 4 dai” value [6, 10] was 416 n and the “DNA Quantification [Septoria DNA], relative copynumbers, 8 dai” value [6, 11] was 10421 n. For the same compound, the “DNA Quantification [Septoria DNA], relative copynumbers, 11 dai” value [6, 12] was 19806 n, the “DNA Quantification [Septoria DNA], relative copy numbers, 1 dbi” value [6, 13] was 120 n and the “DNA Quantification [Septoria DNA], relative copy numbers, 4 dbi” value [6, 14] was 141 n. For the same compound, the “DNA Quantification [Septoria DNA], relative copy numbers, 8 dbi” value [6, 15] was 428 n, the “DNA Quantification [Septoria DNA], relative copy numbers, 11 dbi” value [6, 16] was 2853 n and the “Visual assessment [%] ABBOTT, 1 dai” value [7, 9] was 100%. For the same compound, the “Visual assessment [%] ABBOTT, 4 dai” value [7, 10] was 100%, the “Visual assessment [%] ABBOTT, 8 dai” value [7, 11] was 81.1% and the “Visual assessment [%] ABBOTT, 11 dai” value [7, 12] was 80.2%. For the same compound, the “Visual assessment [%] ABBOTT, 1 dbi” value [7, 13] was 100%, the “Visual assessment [%] ABBOTT, 4 dbi” value [7, 14] was 100% and the “Visual assessment [%] ABBOTT, 8 dbi” value [7, 15] was 96.7%. The “Visual assessment [%] ABBOTT, 11 dbi” value [7, 16] was 88.7%, the “Rating Scale: % Rating Type: Mean (Plant Part Rated: LEAF)” value [2] was 36.3% and the “% ABBOTT” value [2] was 61.8%. The “Efficacy [%] % found” value [2] was 61.8%, the “Rating Scale: % Rating Type: Mean (Plant Part Rated: FL-0-1)” value [3] was 2.3% and the “% ABBOTT” value [3] was 18.2%. For the same compound, the “Efficacy [%] % found” value [3] was 18.2%, the “Efficacy [% Abbott] 1 dai” value [4, 8] was 91 % Abbott and the “Efficacy [% Abbott] 4 dai” value [4, 8] was 38 % Abbott. For the same compound, the “Efficacy [% Abbott] 1 dai” value ([4]; solo compound at 125 g a.i./ha) was 91 % Abbott and the “Efficacy [% Abbott] 4 dai” value ([4]; solo compound at 125 g a.i./ha) was 32 % Abbott.

From patent US9591856B2, “Fungicide compositions comprising fluopyram, at least one succinate dehydrogenase (SDH) inhibitor and optionally at least one triazole fungicide” (priority 2012, dated 2017)
